US8106048B2, “Heterocyclic NF-κB inhibitors” (4SC AG, priority 2004, dated 2012)

Tested on: p65 subunit of NF-κB
Experiment: not given
Conditions: cited from earlier work
For `C=C1C(=O)O[C@@H]2C[C@H](C)[C@H]3C=CC(=O)[C@@]3(C)[C@@H](O)[C@H]12` [Helenalin], the “translocation of NF-κB to the nucleus” value is listed as “did not inhibit”. For `COc1cc(CNC(=O)CCCC/C=C/C(C)C)ccc1O` [capsaicin], the “translocation of NF-κB to the nucleus” value is listed as “blocked”.

Tested on: NF-κB
Experiment: not given
Conditions: cited from earlier work
For `C=C1C(=O)O[C@@H]2C[C@H](C)[C@H]3C=CC(=O)[C@@]3(C)[C@@H](O)[C@H]12` [Helenalin], the “NF-κB activation / activity” value is listed as “inhibit NF-κB activity by selectively alkylating the cysteine residue of the p65 subunit of NF-κB”. In the case of `COc1cc(CNC(=O)CCCC/C=C/C(C)C)ccc1O` [capsaicin], the “NF-κB activation / activity” value is given as “blocked TNF-α and phorbol mediated NF-κB activation”.

Tested on: IκB-α
Experiment: not given
Conditions: cited from earlier work
For `C=C1C(=O)O[C@@H]2C[C@H](C)[C@H]3C=CC(=O)[C@@]3(C)[C@@H](O)[C@H]12` [Helenalin], the IκB degradation is listed as “did not inhibit”. For `COc1cc(CNC(=O)CCCC/C=C/C(C)C)ccc1O` [capsaicin], the IκB degradation is listed as “blocked degradation of IκB-α”.

Tested on: A549-NF-κB-SEAP reporter cells
Experiment: Inhibition of NF-κB-induced inflammation: […] NINA Instant Assay, TNF-α stimulated SEAP reporter
Format: cell-based
Conditions: % inhibition classes
Method in brief: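 A549 cells carrying an NF-κB-driven SEAP reporter were pretreated with compound (0.01–100 μM) for 4.5 h, then stimulated with 2 ng/ml TNF-α for 22 h. After inactivation of endogenous phosphatases, SEAP activity was read by CSPD chemiluminescence (40 min). EC50 values were fitted from quadruplicate data points.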
In the case of `O=C(c1csc(C2CCN(S(=O)(=O)Cc3ccccc3)CC2)n1)N1CCN(c2cccc(C(F)(F)F)c2)CC1` [compound 198], the “Biological activity (inhibition in the NF-κB inflammation assay)” value is reported as “+ (“+” stands for 50-80% inhibition)”. In the case of `O=C(c1csc(C2CCN(S(=O)(=O)c3ccc(Br)cc3)CC2)n1)N1CCN(c2cccc(C(F)(F)F)c2)CC1` [compound 199], the “Biological activity (inhibition in the NF-κB inflammation assay)” value is reported as “+ (“+” stands for 50-80% inhibition)”. With `O=C(c1csc(C2CCN(S(=O)(=O)c3ccc(Cl)cc3Cl)CC2)n1)N1CCN(c2cccc(C(F)(F)F)c2)CC1` [compound 200] the “Biological activity (inhibition in the NF-κB inflammation assay)” value was “×”. In the case of `O=C(c1csc(C2CCN(S(=O)(=O)c3cc(C(F)(F)F)cc(C(F)(F)F)c3)CC2)n1)N1CCN(c2cccc(C(F)(F)F)c2)CC1` [compound 201], the “Biological activity (inhibition in the NF-κB inflammation assay)” value is reported as “++ (“++” means 80-90%)”. With `COc1ccc(Cl)cc1S(=O)(=O)N1CCC(c2nc(C(=O)N3CCN(c4cccc(C(F)(F)F)c4)CC3)cs2)CC1` [compound 202] the “Biological activity (inhibition in the NF-κB inflammation assay)” value was “++ (“++” means 80-90%)”. With `O=C(c1csc(C2CCN(S(=O)(=O)c3ccc(Br)s3)CC2)n1)N1CCN(c2cccc(C(F)(F)F)c2)CC1` [compound 203] the “Biological activity (inhibition in the NF-κB inflammation assay)” value was “+ (“+” stands for 50-80% inhibition)”. For `Cc1ccc(S(=O)(=O)N2CCC(c3nc(C(=O)N4CCN(c5cccc(C(F)(F)F)c5)CC4)cs3)CC2)cc1` [compound 204], the “Biological activity (inhibition in the NF-κB inflammation assay)” value was “+ (“+” stands for 50-80% inhibition)”. In the case of `O=C(c1csc(C2CCN(S(=O)(=O)c3ccc(OC(F)(F)F)cc3)CC2)n1)N1CCN(c2cccc(C(F)(F)F)c2)CC1` [compound 205], the “Biological activity (inhibition in the NF-κB inflammation assay)” value is reported as “+ (“+” stands for 50-80% inhibition)”. With `O=C(c1csc(C2CCN(S(=O)(=O)c3ccc(Cl)cc3)CC2)n1)N1CCN(c2cccc(C(F)(F)F)c2)CC1` [compound 206] the “Biological activity (inhibition in the NF-κB inflammation assay)” value was “+ (“+” stands for 50-80% inhibition)”. With `CC(=O)Nc1ccc(S(=O)(=O)N2CCC(c3nc(C(=O)N4CCN(c5cccc(C(F)(F)F)c5)CC4)cs3)CC2)cc1` [compound 207] the “Biological activity (inhibition in the NF-κB inflammation assay)” value was “+ (“+” stands for 50-80% inhibition)”. For `O=C(c1csc(C2CCN(S(=O)(=O)c3ccccc3)CC2)n1)N1CCN(c2cccc(C(F)(F)F)c2)CC1` [compound 208], the “Biological activity (inhibition in the NF-κB inflammation assay)” value was “+ (“+” stands for 50-80% inhibition)”. In the case of `COc1cccc(C(=O)N2CCC(c3nc(C(=O)N4CCN(c5cccc(C(F)(F)F)c5)CC4)cs3)CC2)c1` [compound 209], the “Biological activity (inhibition in the NF-κB inflammation assay)” value is reported as “+ (“+” stands for 50-80% inhibition)”. In the case of `CN1CCOc2cc(C(=O)N3CCC(c4nc(C(=O)N5CCN(c6cccc(C(F)(F)F)c6)CC5)cs4)CC3)ccc21` [compound 210], the “Biological activity (inhibition in the NF-κB inflammation assay)” value is reported as “++ (“++” means 80-90%)”. In the case of `O=C(c1ccc2nccnc2c1)N1CCC(c2nc(C(=O)N3CCN(c4cccc(C(F)(F)F)c4)CC3)cs2)CC1` [compound 211], the “Biological activity (inhibition in the NF-κB inflammation assay)” value is reported as “+ (“+” stands for 50-80% inhibition)”. In the case of `O=C(c1csc(C2CCN(C(=O)c3cccs3)CC2)n1)N1CCN(c2cccc(C(F)(F)F)c2)CC1` [compound 212], the “Biological activity (inhibition in the NF-κB inflammation assay)” value is reported as “+ (“+” stands for 50-80% inhibition)”. In the case of `O=C(c1csc(C2CCN(C(=O)c3cc4ccccc4s3)CC2)n1)N1CCN(c2cccc(C(F)(F)F)c2)CC1` [compound 213], the “Biological activity (inhibition in the NF-κB inflammation assay)” value is reported as “++ (“++” means 80-90%)”. With `O=C(C=Cc1ccccc1)N1CCC(c2nc(C(=O)N3CCN(c4cccc(C(F)(F)F)c4)CC3)cs2)CC1` [compound 214] the “Biological activity (inhibition in the NF-κB inflammation assay)” value was “++ (“++” means 80-90%)”. In the case of `O=C(c1ccc(C(F)(F)F)c(F)c1)N1CCC(c2nc(C(=O)N3CCN(c4cccc(C(F)(F)F)c4)CC3)cs2)CC1` [compound 215], the “Biological activity (inhibition in the NF-κB inflammation assay)” value is reported as “+++ (“+++” stands for 90-100% inhibition)”. For `Cn1nc(C(C)(C)C)cc1C(=O)N1CCC(c2nc(C(=O)N3CCN(c4cccc(C(F)(F)F)c4)CC3)cs2)CC1` [compound 216], the “Biological activity (inhibition in the NF-κB inflammation assay)” value was “++ (“++” means 80-90%)”. For `O=C(c1csc(C2CCN(C(=O)C3COc4ccccc4O3)CC2)n1)N1CCN(c2cccc(C(F)(F)F)c2)CC1` (stereo not shown) [compound 217], the “Biological activity (inhibition in the NF-κB inflammation assay)” value was “+++ (“+++” stands for 90-100% inhibition)”. For `O=C(c1csc(C2CCN(C(=O)c3cc(-c4ccc(Cl)cc4)oc3C(F)(F)F)CC2)n1)N1CCN(c2cccc(C(F)(F)F)c2)CC1` [compound 218], the “Biological activity (inhibition in the NF-κB inflammation assay)” value was “+++ (“+++” stands for 90-100% inhibition)”. With `Cc1noc(C)c1C(=O)N1CCC(c2nc(C(=O)N3CCN(c4cccc(C(F)(F)F)c4)CC3)cs2)CC1` [compound 219] the “Biological activity (inhibition in the NF-κB inflammation assay)” value was “+ (“+” stands for 50-80% inhibition)”. With `Cc1nnsc1C(=O)N1CCC(c2nc(C(=O)N3CCN(c4cccc(C(F)(F)F)c4)CC3)cs2)CC1` [compound 221] the “Biological activity (inhibition in the NF-κB inflammation assay)” value was “+ (“+” stands for 50-80% inhibition)”. In the case of `O=C(c1cccnc1)N1CCC(c2nc(C(=O)N3CCN(c4cccc(C(F)(F)F)c4)CC3)cs2)CC1` [compound 222], the “Biological activity (inhibition in the NF-κB inflammation assay)” value is reported as “+ (“+” stands for 50-80% inhibition)”. With `O=C(c1csc(C2CCN(C(=O)c3ccccc3OC(F)(F)F)CC2)n1)N1CCN(c2cccc(C(F)(F)F)c2)CC1` [compound 223] the “Biological activity (inhibition in the NF-κB inflammation assay)” value was “+++ (“+++” stands for 90-100% inhibition)”. In the case of `O=C(CCC1CCCC1)N1CCC(c2nc(C(=O)N3CCN(c4cccc(C(F)(F)F)c4)CC3)cs2)CC1` [compound 224], the “Biological activity (inhibition in the NF-κB inflammation assay)” value is reported as “+ (“+” stands for 50-80% inhibition)”. In the case of `COc1cc(C(=O)N2CCC(c3nc(C(=O)N4CCN(c5cccc(C(F)(F)F)c5)CC4)cs3)CC2)cc(OC)c1OC` [compound 225], the “Biological activity (inhibition in the NF-κB inflammation assay)” value is reported as “+ (“+” stands for 50-80% inhibition)”. In the case of `CN(C)c1cccc(C(=O)N2CCC(c3nc(C(=O)N4CCN(c5cccc(C(F)(F)F)c5)CC4)cs3)CC2)c1` [compound 226], the “Biological activity (inhibition in the NF-κB inflammation assay)” value is reported as “++ (“++” means 80-90%)”. With `COC(=O)CC1c2ccccc2CCN1C(=O)c1csc(C2CCN(C(=O)Cc3ccc(F)cc3)CC2)n1` (stereo not shown) [compound 227] the “Biological activity (inhibition in the NF-κB inflammation assay)” value was “+ (“+” stands for 50-80% inhibition)”. For `N#CC1(c2ccccc2)CCN(C(=O)c2csc(C3CCN(C(=O)Cc4ccc(F)cc4)CC3)n2)CC1` [compound 228], the “Biological activity (inhibition in the NF-κB inflammation assay)” value was “+ (“+” stands for 50-80% inhibition)”. With `COc1ccccc1N1CCN(C(=O)c2csc(C3CCN(C(=O)Cc4ccc(F)cc4)CC3)n2)CC1` [compound 229] the “Biological activity (inhibition in the NF-κB inflammation assay)” value was “+ (“+” stands for 50-80% inhibition)”. In the case of `O=C(c1csc(C2CCN(C(=O)c3ccco3)CC2)n1)N1CCN(c2cccc(C(F)(F)F)c2)CC1` [compound 230], the “Biological activity (inhibition in the NF-κB inflammation assay)” value is reported as “+ (“+” stands for 50-80% inhibition)”. In the case of `CCCCN1CCN(C(=O)c2csc(C3CCN(C(=O)Cc4ccc(F)cc4)CC3)n2)CC1` [compound 231], the “Biological activity (inhibition in the NF-κB inflammation assay)” value is reported as “+ (“+” stands for 50-80% inhibition)”. With `COc1cc2c(cc1OC)CN(C(=O)c1csc(C3CCN(C(=O)Cc4ccc(F)cc4)CC3)n1)C(C)C2` (stereo not shown) [compound 232] the “Biological activity (inhibition in the NF-κB inflammation assay)” value was “+ (“+” stands for 50-80% inhibition)”. With `CC1c2cc(O)c(O)cc2CCN1C(=O)c1csc(C2CCN(C(=O)Cc3ccc(F)cc3)CC2)n1` (stereo not shown) [compound 233] the “Biological activity (inhibition in the NF-κB inflammation assay)” value was “+ (“+” stands for 50-80% inhibition)”.

Same assay, conditions: inhibition classes
For `COc1cc2c(cc1OC)C(C)N(C(=O)c1csc(C3CCN(C(=O)Cc4ccc(F)cc4)CC3)n1)CC2` (stereo not shown) [compound 234], the “Biological activity (inhibition in the NF-κB inflammation assay)” value was “+ (“+” stands for 50-80% inhibition)”. For `CNc1ccc(Cl)cc1C1c2ccccc2CCN1C(=O)c1csc(C2CCN(C(=O)Cc3ccc(F)cc3)CC2)n1` (stereo not shown) [compound 235], the “Biological activity (inhibition in the NF-κB inflammation assay)” value was “+ (“+” stands for 50-80% inhibition)”. With `O=C(Cc1ccc(F)cc1)N1CCC(c2nc(C(=O)N3CCCC3c3ccc(F)cc3)cs2)CC1` (stereo not shown) [compound 236] the “Biological activity (inhibition in the NF-κB inflammation assay)” value was “+ (“+” stands for 50-80% inhibition)”. With `O=C(Cc1ccc(F)cc1)N1CCC(c2nc(C(=O)N3CCN(c4ccccn4)CC3)cs2)CC1` [compound 237] the “Biological activity (inhibition in the NF-κB inflammation assay)” value was “+ (“+” stands for 50-80% inhibition)”. For `O=C(Cc1ccc(F)cc1)N1CCC(c2nc(C(=O)N3CCN(c4cccc(Cl)c4)CC3)cs2)CC1` [compound 238], the “Biological activity (inhibition in the NF-κB inflammation assay)” value was “+ (“+” stands for 50-80% inhibition)”. In the case of `COc1ccc(OC)c(N2CCC(c3nc(C(=O)N4CCN(c5cccc(C(F)(F)F)c5)CC4)cs3)CC2)c1` [compound 239], the “Biological activity (inhibition in the NF-κB inflammation assay)” value is reported as “+ (“+” stands for 50-80% inhibition)”. For `COc1cc(NC(=O)N2CCC(c3nc(C(=O)N4CCN(c5cccc(C(F)(F)F)c5)CC4)cs3)CC2)cc(OC)c1OC` [compound 240], the “Biological activity (inhibition in the NF-κB inflammation assay)” value was “++ (“++” means 80-90%)”.

Tested on: TNF-α
Experiment: not given
Conditions: mouse; cited from earlier work
For `NC(=O)c1cccnc1` [nicotinamide], the “lipopolysaccharide-induced TNF-α production” value is listed as “blocked lipopolysacharide-induced TNF-α production in mouse in a dose dependent manner”.
